Data reported in patent US8871753B2, “Macrocyclic compounds and their use as kinase inhibitors” (Incyte Corporation, priority 2008, dated 2014).
Where a name gives a salt, the structure may show the parent alone. Read-outs that look alike come from different tables or passages of the source.

Key:
Type in all cases: biochemical
[1] = molecular target: T1, Recombinant Human Anaplastic Lymphoma Kinase (Homo sapiens, UniProt Q9UM73); test: ALK HTRF kinase assay
T1 construct: purchased Invitrogen, Carlsbad, Calif
Procedure, shortened: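 Biotinylated peptide substrate, recombinant human ALK; detection via europium-chelate antibody to phosphotyrosine paired with streptavidin-APC. Potency expressed as IC50 from four-parameter curve fitting.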

[2] = molecular target: T2, human JAK1 (a.a. 837-1142) (Homo sapiens, UniProt P23458); test: In vitro JAK kinase assay (HTRF, phosphorylation of a biotinylated peptide), JAK1; conditions: read-out: JAK1 IC50
T2 construct: human JAK1 (a.a. 837-1142); His tag (N); made in house; host or cells: insect cells (baculovirus)
Procedure, shortened: (§1)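 Phosphorylation of a biotinylated peptide by the JAK kinase domain, detected by HTRF with Eu-Py20 and SA-APC. ATP was 90 μM for JAK1, 30 μM for JAK2 and 3 μM for JAK3. Reactions ran 1 h at room temperature and were stopped with EDTA, followed by 40 min antibody binding.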

[3] = molecular target: T3, human JAK2 (a.a. 828-1132) (Homo sapiens, UniProt O60674); test: In vitro JAK kinase assay (HTRF, phosphorylation of a biotinylated peptide), JAK2
T3 construct: JAK2 (a.a. 828-1132); His tag (N); made in house; host or cells: insect cells (baculovirus)
Procedure, shortened: as §1

[4] = molecular target: T4, human JAK3 (a.a. 781-1124) (Homo sapiens, UniProt P52333); test: In vitro JAK kinase assay (HTRF, phosphorylation of a biotinylated peptide), JAK3
T4 construct: JAK3 (a.a. 781-1124); His tag (N); made in house; host or cells: insect cells (baculovirus)
Procedure, shortened: as §1

TYK2 = TYK2 (Homo sapiens, UniProt P29597); test: TYK2 kinase inhibition (Table A1)
[5] = compound at 500 nM or 1 mM, 90 μM ATP
[6] = method AA1 (90 μM ATP) or AA2 (1000 μM ATP), not stated per value
[7] = method AA1 (30 μM ATP) or AA2 (1000 μM ATP), not stated per value
[8] = method AA1 (3 μM ATP) or AA2 (1000 μM ATP), not stated per value
[9] = compound at a concentration of 500 nM or 1 mM (not specified), cells shown as percentage
[10] = Table B1, cells without percent sign

T4 sequence (P52333 781-1124): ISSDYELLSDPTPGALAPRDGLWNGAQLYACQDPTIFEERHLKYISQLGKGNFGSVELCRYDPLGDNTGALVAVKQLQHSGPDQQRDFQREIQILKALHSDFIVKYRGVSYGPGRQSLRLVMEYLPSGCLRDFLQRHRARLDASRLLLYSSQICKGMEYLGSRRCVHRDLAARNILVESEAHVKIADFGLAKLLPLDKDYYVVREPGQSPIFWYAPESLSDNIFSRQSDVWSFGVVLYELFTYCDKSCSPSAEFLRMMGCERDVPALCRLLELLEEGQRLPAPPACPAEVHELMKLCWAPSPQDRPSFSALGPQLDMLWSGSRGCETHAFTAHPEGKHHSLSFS
T2 sequence (P23458 849-1154): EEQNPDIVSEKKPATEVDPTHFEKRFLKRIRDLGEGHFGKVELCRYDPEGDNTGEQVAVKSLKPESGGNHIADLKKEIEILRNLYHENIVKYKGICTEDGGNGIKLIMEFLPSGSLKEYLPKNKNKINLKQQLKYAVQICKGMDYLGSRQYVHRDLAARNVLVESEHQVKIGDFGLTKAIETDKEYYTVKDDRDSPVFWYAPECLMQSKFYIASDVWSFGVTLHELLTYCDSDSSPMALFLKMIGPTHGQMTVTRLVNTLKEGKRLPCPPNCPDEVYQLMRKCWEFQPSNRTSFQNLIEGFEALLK
Sequence of TYK2 (P29597 whole entry): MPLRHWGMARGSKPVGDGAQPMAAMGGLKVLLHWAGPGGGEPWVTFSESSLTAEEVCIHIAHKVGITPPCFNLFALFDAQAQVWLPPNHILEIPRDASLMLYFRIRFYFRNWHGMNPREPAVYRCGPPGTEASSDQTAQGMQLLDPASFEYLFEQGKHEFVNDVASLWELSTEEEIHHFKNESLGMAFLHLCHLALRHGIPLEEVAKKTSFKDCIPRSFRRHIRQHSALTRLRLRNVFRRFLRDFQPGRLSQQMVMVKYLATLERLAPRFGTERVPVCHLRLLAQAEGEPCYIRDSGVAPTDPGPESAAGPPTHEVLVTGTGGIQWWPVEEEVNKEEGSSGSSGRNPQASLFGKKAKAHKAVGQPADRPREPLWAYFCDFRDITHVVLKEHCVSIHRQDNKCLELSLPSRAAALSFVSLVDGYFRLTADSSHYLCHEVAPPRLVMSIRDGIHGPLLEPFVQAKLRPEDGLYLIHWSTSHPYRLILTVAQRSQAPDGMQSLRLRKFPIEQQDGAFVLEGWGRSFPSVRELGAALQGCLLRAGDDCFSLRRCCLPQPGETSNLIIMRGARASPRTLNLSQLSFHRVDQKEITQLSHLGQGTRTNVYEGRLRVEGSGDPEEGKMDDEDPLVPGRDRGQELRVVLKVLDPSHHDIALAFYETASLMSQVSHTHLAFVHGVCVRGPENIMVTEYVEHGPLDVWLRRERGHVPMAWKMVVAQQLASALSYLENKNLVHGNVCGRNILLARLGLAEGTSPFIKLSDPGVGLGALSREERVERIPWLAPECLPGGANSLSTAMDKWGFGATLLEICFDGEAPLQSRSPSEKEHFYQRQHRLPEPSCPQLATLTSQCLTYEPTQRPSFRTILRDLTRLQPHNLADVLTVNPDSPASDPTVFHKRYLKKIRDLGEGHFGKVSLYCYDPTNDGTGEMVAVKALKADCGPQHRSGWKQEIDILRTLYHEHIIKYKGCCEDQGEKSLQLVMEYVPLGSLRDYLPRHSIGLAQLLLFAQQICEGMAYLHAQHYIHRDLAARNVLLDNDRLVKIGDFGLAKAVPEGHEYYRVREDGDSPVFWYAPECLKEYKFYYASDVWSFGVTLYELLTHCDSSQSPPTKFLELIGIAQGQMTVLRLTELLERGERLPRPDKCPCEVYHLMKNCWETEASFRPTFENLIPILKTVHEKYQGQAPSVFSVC
T3 sequence (O60674 828-1132): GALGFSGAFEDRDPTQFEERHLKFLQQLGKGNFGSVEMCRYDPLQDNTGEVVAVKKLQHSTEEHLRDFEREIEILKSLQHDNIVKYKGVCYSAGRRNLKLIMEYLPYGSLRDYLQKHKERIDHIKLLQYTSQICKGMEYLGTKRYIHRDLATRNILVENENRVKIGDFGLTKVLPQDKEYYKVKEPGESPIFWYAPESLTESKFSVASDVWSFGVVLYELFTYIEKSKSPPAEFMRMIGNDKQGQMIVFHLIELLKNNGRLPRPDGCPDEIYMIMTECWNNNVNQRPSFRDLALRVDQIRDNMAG
T1 sequence (Q9UM73 19-1620): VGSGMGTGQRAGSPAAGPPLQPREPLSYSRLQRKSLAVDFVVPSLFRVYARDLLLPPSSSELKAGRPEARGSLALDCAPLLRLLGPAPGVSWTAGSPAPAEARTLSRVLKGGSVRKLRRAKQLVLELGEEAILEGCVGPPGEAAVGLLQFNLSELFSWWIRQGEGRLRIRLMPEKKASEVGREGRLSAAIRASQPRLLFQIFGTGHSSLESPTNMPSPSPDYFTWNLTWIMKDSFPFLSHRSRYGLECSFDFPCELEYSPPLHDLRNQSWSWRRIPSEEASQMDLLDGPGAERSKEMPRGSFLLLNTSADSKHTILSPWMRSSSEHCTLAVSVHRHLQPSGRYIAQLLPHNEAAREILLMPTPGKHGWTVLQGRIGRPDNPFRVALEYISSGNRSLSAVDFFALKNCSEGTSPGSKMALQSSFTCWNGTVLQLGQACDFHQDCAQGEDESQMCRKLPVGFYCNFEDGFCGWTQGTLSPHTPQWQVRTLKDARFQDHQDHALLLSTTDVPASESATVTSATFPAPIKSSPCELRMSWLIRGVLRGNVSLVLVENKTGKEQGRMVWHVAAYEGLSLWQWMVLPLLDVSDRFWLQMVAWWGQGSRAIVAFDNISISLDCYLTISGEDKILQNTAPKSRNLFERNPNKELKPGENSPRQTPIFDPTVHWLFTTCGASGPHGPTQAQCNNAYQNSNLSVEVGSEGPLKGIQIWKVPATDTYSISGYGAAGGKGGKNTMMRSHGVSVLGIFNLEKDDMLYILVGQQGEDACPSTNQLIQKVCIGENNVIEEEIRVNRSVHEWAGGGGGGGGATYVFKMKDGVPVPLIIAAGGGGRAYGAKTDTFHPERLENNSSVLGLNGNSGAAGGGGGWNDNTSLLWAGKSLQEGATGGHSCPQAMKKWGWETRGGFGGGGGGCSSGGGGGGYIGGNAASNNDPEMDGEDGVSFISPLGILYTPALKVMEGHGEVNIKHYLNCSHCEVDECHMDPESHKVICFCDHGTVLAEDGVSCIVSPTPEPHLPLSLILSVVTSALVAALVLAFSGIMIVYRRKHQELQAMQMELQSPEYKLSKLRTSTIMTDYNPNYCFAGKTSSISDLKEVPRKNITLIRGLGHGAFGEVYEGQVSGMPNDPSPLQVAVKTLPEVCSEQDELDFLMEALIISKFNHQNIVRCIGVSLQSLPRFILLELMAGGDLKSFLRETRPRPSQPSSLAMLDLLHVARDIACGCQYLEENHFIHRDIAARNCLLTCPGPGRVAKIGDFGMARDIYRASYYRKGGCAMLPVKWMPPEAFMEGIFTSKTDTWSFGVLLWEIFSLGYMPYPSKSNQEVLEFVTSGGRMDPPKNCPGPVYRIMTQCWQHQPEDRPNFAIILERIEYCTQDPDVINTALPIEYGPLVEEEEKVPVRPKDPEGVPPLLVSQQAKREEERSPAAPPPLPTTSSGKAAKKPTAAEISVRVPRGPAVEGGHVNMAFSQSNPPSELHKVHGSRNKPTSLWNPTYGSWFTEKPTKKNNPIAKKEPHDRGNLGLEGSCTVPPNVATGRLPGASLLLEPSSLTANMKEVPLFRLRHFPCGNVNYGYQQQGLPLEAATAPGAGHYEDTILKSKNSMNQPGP

SMILES: CCNC(=O)N1CCC(CC(=O)Nc2ccc3cc2CCc2cccc(c2)Nc2ncc(Cl)c(n2)N3)CC1 [Example A57, 4-(2-{[6-Chloro-2,4,8,22-tetraazatetracyclo[14.3.1.1(3,7).1(9,13)]docosa-1(20),3(22),4,6,9(21),10,12,16,18-nonaen-12-yl]amino}-2-oxoethyl)-N-ethylpiperidine-1-carboxamide trifluoroacetate]
- ALK % of inhibition at a concentration of 500 nM or 1 mM [1, 5]: 24%
- IC50 [2, 6]: 5.5 nM
- IC50 [3, 7]: 7.3 nM
- IC50 [4, 8]: 60 nM
- IC50 (TYK2): 8.8 nM

SMILES: O=C(Nc1ccccc1)c1cc2cc(c1)OCCSc1cccc(c1)Nc1nc(ncc1Cl)N2 [Example D50, 6-Chloro-N-phenyl-17-oxa-14-thia-2,4,8,24-tetraazatetracyclo[16.3.1.1(3,7).1(9,13)]tetracosa-1(22),3(24),4,6,9(23),10,12,18,20-nonaene-20-carboxamide trifluoroacetate]
- IC50 ([1]; Table D1, 90 μM ATP): 1500 nM
- IC50 ([2]; Table D1): 7.3 nM
- IC50 ([3]; Table D1): 4.1 nM
- IC50 ([4]; Table D1): 55 nM
- IC50 (TYK2; Table D1): 16 nM

SMILES: CN(Cc1ccc2cc1CCc1cncc(c1)Nc1ncc(Cl)c(n1)N2)CC1CCN(C(=O)Nc2cccnc2)CC1 [Example B348, 4-{[{[6-Chloro-2,4,8,18,22-pentaazatetracyclo[14.3.1.1(3,7).1(9,13)]docosa-1(20),3(22),4,6,9(21),10,12,16,18-nonaen-12-yl]methyl}(methyl)amino]methyl}-N-pyridin-3-ylpiperidine-1-carboxamide tetrakis(trifluoroacetate)]
- ALK % of inhibition at a concentration of 500 nM or 1 mM ([1]; percentage inhibition of the example compound at a concentration of 500 nM or 1 mM (not specified which)): 47%
- IC50 ([2]; Table B1): 3.4 nM
- IC50 ([3]; Table B1): 45 nM
- IC50 ([4]; Table B1): > 400 nM
- IC50 (TYK2; Table B1): > 400 nM

SMILES: COc1cc(C(=O)N2CCC(CC(=O)Nc3ccc4cc3CCc3cncc(c3)Nc3ncc(Cl)c(n3)N4)CC2)on1 [Example A215, N-[6-Chloro-2,4,8,18,22-pentaazatetracyclo[14.3.1.1(3,7).1(9,13)]docosa-1(20),3(22),4,6,9(21),10,12,16,18-nonaen-12-yl]-2-{1-[(3-methoxyisoxazol-5-yl)carbonyl]piperidin-4-yl}acetamide bis(trifluoroacetate)]
- ALK % of inhibition at a concentration of 500 nM or 1 mM [1, 5]: 32%
- IC50 [2, 6]: 16 nM
- IC50 [3, 7]: 185 nM
- IC50 [4, 8]: > 200 nM
- IC50 (TYK2): 160 nM

SMILES: O=C(Nc1ccc2cc1CCc1cccc(c1)Nc1ncc(Cl)c(n1)N2)N[C@@H]1CCN(C(=O)c2ccccc2)C1 [Example B176, N-[(3R)-1-Benzoylpyrrolidin-3-yl]-N′-[6-chloro-2,4,8,22-tetraazatetracyclo[14.3.1.1(3,7).1(9,13)]docosa-1(20),3(22),4,6,9(21),10,12,16,18-nonaen-12-yl]urea trifluoroacetate]
- ALK % of inhibition at a concentration of 500 nM or 1 mM [1, 9]: 19%
- IC50 ([2]; Table B1): 5.7 nM
- IC50 ([3]; Table B1): 7.8 nM
- IC50 ([4]; Table B1): 60 nM
- IC50 (TYK2; Table B1): 25 nM

SMILES: COCC(C)NC(=O)Nc1ccc2cc1CCc1cccc(c1)Nc1ncc(Cl)c(n1)N2 (stereo not shown) [Example B247, N-[6-Chloro-2,4,8,22-tetraazatetracyclo[14.3.1.1(3,7).1(9,13)]docosa-1(20),3(22),4,6,9(21),10,12,16,18-nonaen-12-yl]-N′-(2-methoxy-1-methylethyl)ureatrifluoroacetate]
- ALK % of inhibition at a concentration of 500 nM or 1 mM [1, 9]: 7.5%
- IC50 ([2]; Table B1): 6.5 nM
- IC50 ([3]; Table B1): 4 nM
- IC50 ([4]; Table B1): 73 nM
- IC50 (TYK2; Table B1): 20 nM

SMILES: O=C(Nc1ccc(Cl)cc1)Nc1ccc2cc1CCc1cccc(c1)Nc1ncc(Cl)c(n1)N2 [Example B86, N-(4-Chlorophenyl)-N′-[6-chloro-2,4,8,22-tetraazatetracyclo[14.3.1.1(3,7).1(9,13)]docosa-1(20),3(22),4,6,9(21),10,12,16,18-nonaen-12-yl]urea trifluoroacetate]
- IC50 [1, 10]: > 1000 nM
- IC50 ([2]; Table B1): 2.7 nM
- IC50 ([3]; Table B1): 2.6 nM
- IC50 ([4]; Table B1): 27 nM
- IC50 (TYK2; Table B1): 6.4 nM

SMILES: Cc1ncoc1C(=O)Nc1ccc2cc1CCc1cccc(c1)Nc1ncc(Cl)c(n1)N2 [Example B78, N-[6-Chloro-2,4,8,22-tetraazatetracyclo[14.3.1.1(3,7).1(9,13)]docosa-1(20),3(22),4,6,9(21),10,12,16,18-nonaen-12-yl]-4-methyl-1,3-oxazole-5-carboxamide trifluoroacetate]
- ALK % of inhibition at a concentration of 500 nM or 1 mM [1, 9]: 44%
- IC50 ([2]; Table B1): 11 nM
- IC50 ([3]; Table B1): 12 nM
- IC50 ([4]; Table B1): 57 nM
- IC50 (TYK2; Table B1): 29 nM

SMILES: O=C(Nc1cc2cc(c1)Nc1nc(ncc1Cl)Nc1cccc(c1)CC2)c1ccccn1 [Example B201, N-[6-Chloro-2,4,8,22-tetraazatetracyclo[14.3.1.1(3,7).1(9,13)]docosa-1(20),3(22),4,6,9(21),10,12,16,18-nonaen-11-yl]pyridine-2-carboxamide trifluoroacetate]
- IC50 [1, 10]: > 10000 nM
- IC50 ([2]; Table B1): 119 nM
- IC50 ([3]; Table B1): 410 nM
- IC50 ([4]; Table B1): 454 nM
- IC50 (TYK2; Table B1): > 1000 nM

SMILES: O=C(Nc1ccc2cc1CCc1cccc(c1)Nc1ncc(Cl)c(n1)N2)c1ccoc1 [Example B59, N-[6-Chloro-2,4,8,22-tetraazatetracyclo[14.3.1.1(3,7).1(9,13)]docosa-1(20), 3(22),4,6,9(21),10,12,16,18-nonaen-12-yl]-3-furamide trifluoroacetate]
- IC50 [1, 10]: 700 nM
- IC50 ([2]; Table B1): 2.4 nM
- IC50 ([3]; Table B1): 2.4 nM
- IC50 ([4]; Table B1): 5.1 nM
- IC50 (TYK2; Table B1): 5.3 nM

SMILES: CC(=O)N1CCN(c2cc(-c3cc4cc(c3)Nc3ncc(Cl)c(n3)Nc3cccc(c3)OCC4)ccn2)CC1 [Example D35, 19-[2-(4-Acetylpiperazin-1-yl)pyridin-4-yl]-6-chloro-14-oxa-2,4,8,23-tetraazatetracyclo[15.3.1.1(3,7).1(9,13)]tricosa-1(21),3(23),4,6,9(22),10,12,17,19-nonaene bis(trifluoroacetate)]
- IC50 ([1]; Table D1, 90 μM ATP): 150 nM
- IC50 ([2]; Table D1): 0.7 nM
- IC50 ([3]; Table D1): 0.4 nM
- IC50 ([4]; Table D1): 7.7 nM
- IC50 (TYK2; Table D1): 4.3 nM

SMILES: CCC(=O)N1CCC(CC(=O)Nc2ccc3cc2CCc2cccc(c2)Nc2ncc(Cl)c(n2)N3)CC1 [Example A90, N-[6-Chloro-2,4,8,22-tetraazatetracyclo[14.3.1.1(3,7).1(9,13)]docosa-1(20), 3(22),4,6,9(21),10,12,16,18-nonaen-12-yl]-2-(1-propionylpiperidin-4-yl)acetamide trifluoroacetate]
- ALK % of inhibition at a concentration of 500 nM or 1 mM [1, 5]: 30%
- IC50 [2, 6]: 4.9 nM
- IC50 [3, 7]: 5.4 nM
- IC50 [4, 8]: 68 nM
- IC50 (TYK2): 4.9 nM

SMILES: O=C(CC1CCN(S(=O)(=O)c2ccco2)CC1)Nc1ccc2cc1CCc1cncc(c1)Nc1ncc(Cl)c(n1)N2 [Example A201, N-[6-Chloro-2,4,8,18,22-pentaazatetracyclo[14.3.1.1(3,7).1(9,13)]docosa-1(20),3(22),4,6,9(21),10,12,16,18-nonaen-12-yl]-2-[1-(2-furylsulfonyl)piperidin-4-yl]acetamide bis(trifluoroacetate)]
- ALK % of inhibition at a concentration of 500 nM or 1 mM [1, 5]: 31%
- IC50 [2, 6]: 9.3 nM
- IC50 [3, 7]: 100 nM
- IC50 [4, 8]: > 200 nM
- IC50 (TYK2): 150 nM

SMILES: COc1ccccc1C(=O)Nc1ccc2cc1CCc1cccc(c1)Nc1ncc(Cl)c(n1)N2 [Example B36, N-[6-Chloro-2,4,8,22-tetraazatetracyclo[14.3.1.1(3,7).1(9,13)]docosa-1(20), 3(22),4,6,9(21),10,12,16,18-nonaen-12-yl]-2-methoxybenzamide trifluoroacetate]
- IC50 [1, 10]: > 1000 nM
- IC50 ([2]; Table B1): 13 nM
- IC50 ([3]; Table B1): 7.7 nM
- IC50 ([4]; Table B1): 42 nM
- IC50 (TYK2; Table B1): 21 nM

SMILES: COc1ccccc1N1CCN(C(=O)Nc2ccc3cc2CCc2cncc(c2)Nc2ncc(Cl)c(n2)N3)CC1 [Example B298, N-[6-Chloro-2,4,8,18,22-pentaazatetracyclo[14.3.1.1(3,7).1(9,13)]docosa-1(20),3(22),4,6,9(21),10,12,16,18-nonaen-12-yl]-4-(2-methoxyphenyl)piperazine-1-carboxamide tris(trifluoroacetate)]
- ALK % of inhibition at a concentration of 500 nM or 1 mM [1, 9]: 62%
- IC50 ([2]; Table B1): 29 nM
- IC50 ([3]; Table B1): 341 nM
- IC50 ([4]; Table B1): > 400 nM
- IC50 (TYK2; Table B1): 208 nM

SMILES: Cc1noc(C)c1C(=O)Nc1ccc2cc1CCc1cccc(c1)Nc1ncc(Cl)c(n1)N2 [Example B40, N-[6-Chloro-2,4,8,22-tetraazatetracyclo[14.3.1.1(3,7).1(9,13)]docosa-1(20), 3(22),4,6,9(21),10,12,16,18-nonaen-12-yl]-3,5-dimethylisoxazole-4-carboxamide trifluoroacetate]
- IC50 [1, 10]: 430 nM
- IC50 ([2]; Table B1): 1.4 nM
- IC50 ([3]; Table B1): 0.55 nM
- IC50 ([4]; Table B1): 3.6 nM
- IC50 (TYK2; Table B1): 2.1 nM

SMILES: O=C(Nc1ccc2cc1CCc1cccc(c1)Nc1ncc(Cl)c(n1)N2)C1CCNCC1 [Example A28, N-[6-Chloro-2,4,8,22-tetraazatetracyclo[14.3.1.1(3,7).1(9,13)]docosa-1(20), 3(22),4,6,9(21),10,12,16,18-nonaen-12-yl]piperidine-4-carboxamide bis(trifluoroacetate)]
- ALK % of inhibition at a concentration of 500 nM or 1 mM [1, 5]: 30%
- IC50 [2, 6]: 56 nM
- IC50 [3, 7]: 61 nM
- IC50 [4, 8]: 99 nM
- IC50 (TYK2): 175 nM
